The source of these data is patent US20200129513A1, “COMPOSITIONS AND METHODS FOR TREATING HEMATOLOGIC MALIGNANCIES” (UNIVERSITY OF ROCHESTER, priority 2018, published 2020).

The subject of assay [1] is CA46 cell line. The assay can be described thus: NHL p53 mutated cell line viability, Cell Titer-Glo 2.0 Assay. The format is cell-based. To be noted: Homo sapiens; CA46 (BL-derived, p.R248Q p53), 54 hours culture, Cell Titer-Glo 2.0, FIG. 9; read-out: IC50, reduction of cell viability of p53 mutated NHL cell line. The protocol: Luminescence was measured on a BioTek Synergy2 96-well plate reader (BioTek Instruments). Data was analysed using Prism6 software (GraphPad Software) and dose curve was generated using 4PL fit.

Assay [2] deals with AML patient cells. The assay is described as follows: AML cell death, CellTox Green Cytotoxicity Assay. To be noted: Homo sapiens, one AML patient sample, 30 hours culture, FIG. 7, read-out: IC50, induction of AML cell death. The format is cell-based.
The test system of assay [3] is primary AML suspension cells. The assay can be described thus: AML cell viability, Cell Titer-Glo 2.0 Assay. The class given is cell-based, human. To be noted: two different AML patient samples, 30 hours culture, Cell Titer-Glo 2.0, FIG. 6, read-out: IC50, reduction of AML cell viability. As to the method:
To test this, primary AML suspension cells were treated in vitro with afatinib. Cell viability was measured by Cell Titer-Glo 2.0 Assay (Promega) in triplicate for each concentration. Two different AML patient cells (1×10^5 cells/100 μL media) were cultured for 30 hours in clear 96-well flat bottom tissue culture plates (Costar, Corning) with serial drug dilutions (100 μM afatinib (LC Laboratories) serially diluted 3-fold ending at ˜0.01 μM). Media is RPMI1640 (Cellgro, Corning) supplemented with penicillin, streptomycin, L-glutamine (Gibco, ThermoFisher Scientific), and 10% heat-inactivated fetal bovine serum (Sigma-Aldrich). After cell culture, viability was assayed according to manufacturer's directions. Luminescence was measured on a BioTek Synergy2 96-well plate reader (BioTek Instruments). Data was analysed using Prism6 software (GraphPad Software) and dose curve was generated using 4PL fit.

The test system of assay [4] is CLL patient cells. The assay can be described thus: CLL cell death, CellTox Green Cytotoxicity Assay. The format is cell-based. To be noted: Homo sapiens, 48 hours culture, FIG. 3, read-out: IC50, induction of CLL cell death. The text has this:
The common off-target with the best binding was ERRB2 in the EGFR family of receptors. Afatinib (an irreversible inhibitor that covalently binds to the EGFR family of receptors (including ERBB2) active tyrosine kinase domain ATP-binding site, a similar mechanism to that of the BTK inhibitors) was chosen as an example EGFR family inhibitor to test this hypothesis. […] Media is RPMI1640 (Cellgro, Corning) supplemented with penicillin, streptomycin, L-glutamine (Gibco, ThermoFisher Scientific, Waltham, Mass.), and 10% heat-inactivated fetal bovine serum (Sigma-Aldrich, St. Louis, Mo.). After cell culture, viability was measured by Cell Titer-Blue Cell Viability Assay (Promega, Madison, Wis.) according to manufacturer's directions. Non-viable cells produce less fluorescence. Measurements were done in triplicate for each concentration. Fluorescence was measured on a BioTek Synergy2 96-well plate reader (BioTek Instruments, Winooski, Vt.). Data was analysed using Prism6 software (GraphPad Software, La Jolla, Calif.) and dose curve was generated using 4PL fit. […] To test that an EGFR family inhibitor not only reduces CLL cell viability, but also induces cell death in vitro, cytotoxicity was measured by CellTox Green Cytotoxicity Assay (Promega). Dead cells produce more fluorescence in this assay. […] Fluorescence was measured on a BioTek Synergy2 96-well plate reader (BioTek Instruments). […]

Assay [5] concerns CA46 cell line. The assay can be described thus: NHL p53 mutated cell line death, CellTox Green Cytotoxicity Assay. The class given is cell-based. To be noted: Homo sapiens, CA46, 54 hours culture, FIG. 10, read-out: IC50, induction of cell death of p53 mutated NHL cell line.
Assay [6] has as its system CLL patient cells. The assay is described as follows: CLL cell viability, Cell Titer-Blue Cell Viability Assay. The format is cell-based. Particulars: Homo sapiens, 48 hours culture, FIG. 1, read-out: IC50, reduction of CLL cell viability. The text has this:
The common off-target with the best binding was ERRB2 in the EGFR family of receptors. Afatinib (an irreversible inhibitor that covalently binds to the EGFR family of receptors (including ERBB2) active tyrosine kinase domain ATP-binding site, a similar mechanism to that of the BTK inhibitors) was chosen as an example EGFR family inhibitor to test this hypothesis. […] Media is RPMI1640 (Cellgro, Corning) supplemented with penicillin, streptomycin, L-glutamine (Gibco, ThermoFisher Scientific, Waltham, Mass.), and 10% heat-inactivated fetal bovine serum (Sigma-Aldrich, St. Louis, Mo.). After cell culture, viability was measured by Cell Titer-Blue Cell Viability Assay (Promega, Madison, Wis.) according to manufacturer's directions. Non-viable cells produce less fluorescence. Measurements were done in triplicate for each concentration. Fluorescence was measured on a BioTek Synergy2 96-well plate reader (BioTek Instruments, Winooski, Vt.). Data was analysed using Prism6 software (GraphPad Software, La Jolla, Calif.) and dose curve was generated using 4PL fit. Afatinib reduces CLL cell viability in a dose dependent manner (IC50 0.4 μM) as shown in FIG. 1 (all data points shown).

Assay [7] concerns CLL patient cells. The assay is described as follows: CLL cell viability, Cell Titer-Glo 2.0 Assay. The class given is cell-based, human. Particulars: for IC50: Homo sapiens, CLL patient cells, 48 hours culture. As to the method: After cell culture, viability was assayed according to manufacturer's directions. Luminescence was measured on a BioTek Synergy2 96-well plate reader (BioTek Instruments). Data was analysed using Prism6 software (GraphPad Software) and dose curve was generated using 4PL fit.
Cell viability was measured by Cell Titer-Glo 2.0 Assay (Promega) in triplicate for each concentration. […] After cell culture, viability was assayed according to manufacturer's directions. Luminescence was measured on a BioTek Synergy2 96-well plate reader (BioTek Instruments). Data was analysed using Prism6 software (GraphPad Software) and dose curve was generated using 4PL fit.

Read-outs that look alike come from different tables or passages of the source.

As to `CN(C)C/C=C/C(=O)Nc1cc2c(Nc3ccc(F)c(Cl)c3)ncnc2cc1O[C@H]1CCOC1` [Afatinib], the IC50 amounted to 3 µM in assay [1]; 19 µM in assay [2]; 2.1 µM in assay [3] (Homo sapiens, 30 h); 2.6 µM in assay [3]; 12 µM in assay [4]; 22 µM in assay [5]. Besides, the IC50 in assay [6] is 0.4 µM; in assay [7] (read-out: IC50, reduction of CLL cell viability (afatinib vs ibrutinib comparison), Cell Titer-Glo 2.0, FIG. 4) it was 0.5 µM; in assay [7] (Cell Titer-Glo 2.0, FIG. 2, read-out: IC50, reduction of CLL cell viability), 0.3 µM. Further, in assay [7] (ratio of IC50 values, FIG. 4), the “fold lower concentration than ibrutinib for reduction of CLL cell viability” value worked out at 20 fold.
